Consider two molecules from ChEMBL document CHEMBL4507319 (2021).

For assay [1], the target named is Tyrosine-protein kinase Lck (Homo sapiens) (UniProt P06239). The settings on record: Compound concentration 1000.0 nM.
Assay [2] concerns the target T1, Tyrosine-protein kinase ITK/TSK (Homo sapiens) (UniProt Q08881).
T1 sequence (whole entry): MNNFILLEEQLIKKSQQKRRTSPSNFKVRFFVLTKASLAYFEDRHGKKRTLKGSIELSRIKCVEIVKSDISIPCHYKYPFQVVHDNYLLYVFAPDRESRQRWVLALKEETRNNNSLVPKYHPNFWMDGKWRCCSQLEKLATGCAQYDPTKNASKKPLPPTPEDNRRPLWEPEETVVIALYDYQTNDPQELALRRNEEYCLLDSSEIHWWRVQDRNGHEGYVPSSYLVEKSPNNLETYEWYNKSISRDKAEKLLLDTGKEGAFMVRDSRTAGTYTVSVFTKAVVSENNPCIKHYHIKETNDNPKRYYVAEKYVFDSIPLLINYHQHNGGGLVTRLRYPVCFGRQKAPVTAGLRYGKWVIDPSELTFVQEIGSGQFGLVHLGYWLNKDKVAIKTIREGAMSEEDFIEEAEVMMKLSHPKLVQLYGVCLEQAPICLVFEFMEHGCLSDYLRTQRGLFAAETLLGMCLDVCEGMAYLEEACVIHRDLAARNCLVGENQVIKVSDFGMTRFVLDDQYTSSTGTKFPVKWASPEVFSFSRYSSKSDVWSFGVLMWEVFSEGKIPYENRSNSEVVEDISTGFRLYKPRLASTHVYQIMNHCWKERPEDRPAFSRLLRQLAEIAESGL
Particulars: Compound concentration 1000.0 nM.

Assay [3] addresses Serine/threonine-protein kinase pim-3 (Homo sapiens) (UniProt Q86V86). Particulars: Compound concentration 1000.0 nM.
Assay [4] has as its target Serine/threonine-protein kinase RIO3 (Homo sapiens) (UniProt O14730). The settings on record: Compound concentration 1000.0 nM.
Assay [5] has as its target Dual specificity testis-specific protein kinase 1 (Homo sapiens) (UniProt Q15569). The settings on record: Compound concentration 1000.0 nM.
Assay [6] concerns the target 5-hydroxytryptamine receptor 1E (Homo sapiens) (UniProt P28566). Particulars: Compound concentration 10.0 uM.
Assay [7] deals with Ribosomal protein S6 kinase alpha-6 (Homo sapiens) (UniProt Q9UK32). Particulars: Compound concentration 1000.0 nM.
Assay [8] addresses Ephrin type-A receptor 6 (Homo sapiens) (UniProt Q9UF33). Particulars: Compound concentration 1000.0 nM.
The target in assay [9] is Myosin light chain kinase, smooth muscle (Homo sapiens) (UniProt Q15746). Particulars: Compound concentration 1000.0 nM.
Assay [10] addresses T2, Rhodopsin kinase GRK1 (Homo sapiens) (UniProt Q15835).
T2 sequence (whole entry): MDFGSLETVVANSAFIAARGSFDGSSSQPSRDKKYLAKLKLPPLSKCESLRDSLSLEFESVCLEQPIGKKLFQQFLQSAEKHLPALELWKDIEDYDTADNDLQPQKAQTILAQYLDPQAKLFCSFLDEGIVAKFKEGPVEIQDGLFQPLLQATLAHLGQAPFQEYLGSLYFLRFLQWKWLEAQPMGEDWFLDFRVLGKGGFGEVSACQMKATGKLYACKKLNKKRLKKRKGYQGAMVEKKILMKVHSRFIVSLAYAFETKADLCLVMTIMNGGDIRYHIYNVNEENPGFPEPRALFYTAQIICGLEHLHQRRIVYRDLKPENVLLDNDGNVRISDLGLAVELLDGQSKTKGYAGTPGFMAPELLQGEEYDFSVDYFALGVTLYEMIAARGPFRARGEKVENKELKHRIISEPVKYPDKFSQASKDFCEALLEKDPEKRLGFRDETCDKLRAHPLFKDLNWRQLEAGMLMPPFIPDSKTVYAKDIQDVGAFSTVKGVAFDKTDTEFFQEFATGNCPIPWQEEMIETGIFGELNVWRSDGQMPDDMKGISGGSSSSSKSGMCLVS
Particulars: Compound concentration 1000.0 nM.

In assay [11] the target is T3, Mitogen-activated protein kinase kinase kinase 7 (Homo sapiens) (UniProt O43318).
T3 sequence (whole entry): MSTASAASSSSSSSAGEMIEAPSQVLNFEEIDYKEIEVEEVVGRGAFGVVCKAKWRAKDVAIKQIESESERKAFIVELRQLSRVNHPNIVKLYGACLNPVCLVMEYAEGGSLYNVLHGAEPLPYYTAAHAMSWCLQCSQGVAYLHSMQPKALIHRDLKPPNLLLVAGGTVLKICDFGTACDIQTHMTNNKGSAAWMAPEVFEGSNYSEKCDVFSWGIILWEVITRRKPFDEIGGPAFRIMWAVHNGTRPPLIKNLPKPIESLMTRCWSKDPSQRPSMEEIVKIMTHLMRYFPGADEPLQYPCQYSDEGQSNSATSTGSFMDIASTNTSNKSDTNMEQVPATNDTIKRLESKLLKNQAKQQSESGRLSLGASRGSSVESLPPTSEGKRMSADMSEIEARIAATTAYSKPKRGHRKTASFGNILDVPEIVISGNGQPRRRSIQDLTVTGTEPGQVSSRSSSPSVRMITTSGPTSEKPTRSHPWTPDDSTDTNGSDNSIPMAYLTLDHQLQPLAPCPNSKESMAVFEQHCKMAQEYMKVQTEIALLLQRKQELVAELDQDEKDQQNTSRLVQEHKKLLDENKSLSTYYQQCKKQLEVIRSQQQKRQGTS
Particulars: Compound concentration 1000.0 nM.

In assay [12] the test system is Tyrosine-protein kinase ABL1 (Homo sapiens), P00519 [H396P]. The settings on record: Compound concentration 1000.0 nM.
In assay [13] the target is Serine/threonine-protein kinase 33 (Homo sapiens) (UniProt Q9BYT3). The settings on record: Compound concentration 1000.0 nM.
Serine/threonine-protein kinase 33 (Homo sapiens), sequence (Q9BYT3 whole entry, looked up): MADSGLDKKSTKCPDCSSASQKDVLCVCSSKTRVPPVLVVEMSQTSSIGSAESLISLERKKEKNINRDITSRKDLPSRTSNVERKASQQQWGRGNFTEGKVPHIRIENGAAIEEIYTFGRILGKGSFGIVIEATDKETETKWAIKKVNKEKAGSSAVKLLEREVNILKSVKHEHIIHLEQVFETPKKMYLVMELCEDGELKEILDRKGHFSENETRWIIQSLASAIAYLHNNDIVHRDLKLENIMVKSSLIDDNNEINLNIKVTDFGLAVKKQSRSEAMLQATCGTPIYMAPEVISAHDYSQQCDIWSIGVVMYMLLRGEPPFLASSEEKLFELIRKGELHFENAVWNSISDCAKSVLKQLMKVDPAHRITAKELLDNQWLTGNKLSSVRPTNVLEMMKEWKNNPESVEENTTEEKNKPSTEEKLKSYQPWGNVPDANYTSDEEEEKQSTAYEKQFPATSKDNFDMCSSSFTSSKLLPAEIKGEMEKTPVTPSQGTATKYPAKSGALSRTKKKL
Assay [14] has as its target Vascular endothelial growth factor receptor 2 (Homo sapiens) (UniProt P35968). Particulars: Compound concentration 1000.0 nM.
For assay [15], the target named is AP2-associated protein kinase 1 (Homo sapiens) (UniProt Q2M2I8). The settings on record: Compound concentration 1000.0 nM.
AP2-associated protein kinase 1 (Homo sapiens), sequence (Q2M2I8 whole entry, looked up): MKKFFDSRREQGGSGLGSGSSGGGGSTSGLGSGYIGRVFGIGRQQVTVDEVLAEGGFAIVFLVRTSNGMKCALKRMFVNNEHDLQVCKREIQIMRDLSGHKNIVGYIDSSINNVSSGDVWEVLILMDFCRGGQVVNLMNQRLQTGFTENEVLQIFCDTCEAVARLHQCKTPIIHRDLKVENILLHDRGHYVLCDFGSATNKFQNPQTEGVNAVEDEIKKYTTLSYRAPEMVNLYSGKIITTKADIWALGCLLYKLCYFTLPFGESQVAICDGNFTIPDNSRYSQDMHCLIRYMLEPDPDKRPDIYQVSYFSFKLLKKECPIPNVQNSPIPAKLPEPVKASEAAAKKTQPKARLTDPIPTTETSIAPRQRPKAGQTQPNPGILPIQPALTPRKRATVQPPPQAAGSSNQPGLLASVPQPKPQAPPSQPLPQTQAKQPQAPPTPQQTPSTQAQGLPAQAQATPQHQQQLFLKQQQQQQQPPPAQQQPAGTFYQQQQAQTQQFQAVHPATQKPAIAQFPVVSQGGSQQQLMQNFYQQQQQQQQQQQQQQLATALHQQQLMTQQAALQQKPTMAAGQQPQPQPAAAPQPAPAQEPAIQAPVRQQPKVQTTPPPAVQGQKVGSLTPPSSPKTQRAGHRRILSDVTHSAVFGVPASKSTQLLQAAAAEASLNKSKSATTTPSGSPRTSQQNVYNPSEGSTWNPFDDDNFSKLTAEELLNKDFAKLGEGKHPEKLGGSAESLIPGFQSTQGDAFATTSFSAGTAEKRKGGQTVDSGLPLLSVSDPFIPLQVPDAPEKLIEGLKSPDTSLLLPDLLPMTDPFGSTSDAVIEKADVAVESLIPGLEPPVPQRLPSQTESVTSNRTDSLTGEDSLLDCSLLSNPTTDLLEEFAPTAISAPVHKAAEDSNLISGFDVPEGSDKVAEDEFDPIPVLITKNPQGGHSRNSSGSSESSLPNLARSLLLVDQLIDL
Assay [16] concerns the target Focal adhesion kinase 1 (Homo sapiens) (UniProt Q05397). The settings on record: Compound concentration 1000.0 nM.

Dual specificity testis-specific protein kinase 1 (Homo sapiens), sequence (Q15569 whole entry, looked up): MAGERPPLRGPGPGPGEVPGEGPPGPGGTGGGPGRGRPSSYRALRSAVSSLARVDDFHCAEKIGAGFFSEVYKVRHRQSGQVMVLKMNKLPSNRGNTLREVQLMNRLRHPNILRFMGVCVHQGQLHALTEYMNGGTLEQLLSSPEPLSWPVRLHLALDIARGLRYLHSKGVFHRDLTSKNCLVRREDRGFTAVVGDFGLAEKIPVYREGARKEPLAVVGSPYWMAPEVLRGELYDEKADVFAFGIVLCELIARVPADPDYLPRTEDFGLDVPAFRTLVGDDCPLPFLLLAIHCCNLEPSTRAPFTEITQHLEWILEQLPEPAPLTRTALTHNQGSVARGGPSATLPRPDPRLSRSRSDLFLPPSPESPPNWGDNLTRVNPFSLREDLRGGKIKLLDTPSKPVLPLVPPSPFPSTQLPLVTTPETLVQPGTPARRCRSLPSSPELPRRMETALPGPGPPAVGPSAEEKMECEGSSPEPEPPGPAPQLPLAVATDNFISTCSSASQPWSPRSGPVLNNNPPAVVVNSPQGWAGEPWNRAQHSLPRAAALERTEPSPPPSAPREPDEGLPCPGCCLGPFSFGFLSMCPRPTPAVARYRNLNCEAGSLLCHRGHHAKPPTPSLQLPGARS
Vascular endothelial growth factor receptor 2 (Homo sapiens), sequence (P35968 whole entry): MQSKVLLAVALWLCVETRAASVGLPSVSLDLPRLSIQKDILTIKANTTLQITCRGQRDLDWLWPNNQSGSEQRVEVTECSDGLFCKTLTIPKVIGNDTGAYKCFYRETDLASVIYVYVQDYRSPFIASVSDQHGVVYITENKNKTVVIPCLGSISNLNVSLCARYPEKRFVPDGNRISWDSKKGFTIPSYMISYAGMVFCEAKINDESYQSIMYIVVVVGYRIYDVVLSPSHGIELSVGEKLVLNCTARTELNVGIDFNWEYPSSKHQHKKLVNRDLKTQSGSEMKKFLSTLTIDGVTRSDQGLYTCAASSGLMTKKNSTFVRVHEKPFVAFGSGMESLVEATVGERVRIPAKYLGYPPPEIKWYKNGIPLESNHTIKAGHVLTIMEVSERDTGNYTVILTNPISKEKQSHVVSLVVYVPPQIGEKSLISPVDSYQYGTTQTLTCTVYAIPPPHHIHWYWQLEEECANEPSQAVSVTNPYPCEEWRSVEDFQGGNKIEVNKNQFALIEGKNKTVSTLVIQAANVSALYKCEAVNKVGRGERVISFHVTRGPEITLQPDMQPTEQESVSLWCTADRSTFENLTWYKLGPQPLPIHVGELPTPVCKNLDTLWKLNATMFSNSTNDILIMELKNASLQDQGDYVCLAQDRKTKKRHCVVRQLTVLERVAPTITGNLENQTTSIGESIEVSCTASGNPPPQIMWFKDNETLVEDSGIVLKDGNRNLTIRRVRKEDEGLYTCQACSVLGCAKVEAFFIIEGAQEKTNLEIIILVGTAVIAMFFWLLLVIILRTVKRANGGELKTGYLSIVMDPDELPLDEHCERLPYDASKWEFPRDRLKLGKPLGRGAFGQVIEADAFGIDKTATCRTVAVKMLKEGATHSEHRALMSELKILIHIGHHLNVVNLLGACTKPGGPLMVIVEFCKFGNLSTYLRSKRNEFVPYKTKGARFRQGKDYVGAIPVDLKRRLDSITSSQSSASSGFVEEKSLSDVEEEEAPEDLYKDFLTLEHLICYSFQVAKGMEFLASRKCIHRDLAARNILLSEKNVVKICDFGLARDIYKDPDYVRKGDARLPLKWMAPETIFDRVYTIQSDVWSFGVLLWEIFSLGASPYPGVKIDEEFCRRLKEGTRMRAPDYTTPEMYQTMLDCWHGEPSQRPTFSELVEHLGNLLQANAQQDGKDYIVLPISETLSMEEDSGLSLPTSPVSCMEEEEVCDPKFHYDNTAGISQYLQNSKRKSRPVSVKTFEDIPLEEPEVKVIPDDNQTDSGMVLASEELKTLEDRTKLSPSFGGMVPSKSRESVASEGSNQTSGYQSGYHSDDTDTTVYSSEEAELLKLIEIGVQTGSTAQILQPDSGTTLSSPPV
Ephrin type-A receptor 6 (Homo sapiens), sequence (Q9UF33 whole entry): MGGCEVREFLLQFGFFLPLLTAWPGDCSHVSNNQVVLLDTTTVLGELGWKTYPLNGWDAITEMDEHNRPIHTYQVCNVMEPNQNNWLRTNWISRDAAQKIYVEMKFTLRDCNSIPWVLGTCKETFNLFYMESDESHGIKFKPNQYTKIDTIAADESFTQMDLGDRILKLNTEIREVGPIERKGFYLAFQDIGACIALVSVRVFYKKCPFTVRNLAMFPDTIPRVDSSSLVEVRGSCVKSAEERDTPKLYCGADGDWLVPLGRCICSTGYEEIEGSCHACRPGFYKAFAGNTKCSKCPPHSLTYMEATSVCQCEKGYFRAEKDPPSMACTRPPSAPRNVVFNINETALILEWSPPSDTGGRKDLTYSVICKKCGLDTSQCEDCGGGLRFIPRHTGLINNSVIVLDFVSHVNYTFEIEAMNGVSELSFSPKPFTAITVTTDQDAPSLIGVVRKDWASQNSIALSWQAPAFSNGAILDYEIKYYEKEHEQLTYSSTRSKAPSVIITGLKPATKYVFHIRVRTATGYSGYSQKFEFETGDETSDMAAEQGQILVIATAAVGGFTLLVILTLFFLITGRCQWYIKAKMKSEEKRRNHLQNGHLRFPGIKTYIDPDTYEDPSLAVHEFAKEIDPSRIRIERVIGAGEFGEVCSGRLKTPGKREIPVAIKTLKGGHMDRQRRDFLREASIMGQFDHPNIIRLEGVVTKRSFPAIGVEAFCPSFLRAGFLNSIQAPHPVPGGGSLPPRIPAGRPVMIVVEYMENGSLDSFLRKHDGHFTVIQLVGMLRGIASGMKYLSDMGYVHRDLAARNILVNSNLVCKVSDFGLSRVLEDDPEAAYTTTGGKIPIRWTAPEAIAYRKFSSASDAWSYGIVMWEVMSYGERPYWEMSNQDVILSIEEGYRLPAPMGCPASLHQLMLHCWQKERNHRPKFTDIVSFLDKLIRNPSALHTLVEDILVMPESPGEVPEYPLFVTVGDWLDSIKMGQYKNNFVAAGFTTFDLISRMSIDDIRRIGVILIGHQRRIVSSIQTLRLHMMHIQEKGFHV

As for `CCc1ccccc1C(=O)Nc1n[nH]c2c(C)c(F)c(C3C(C#N)=C(C)N(C)C(C)=C3C#N)cc12` [BAY-3827], the residual activity was 100% in assay [1]; 86% in [2]; 100% in assay [3]; 45% in [4]; 96% in assay [5]; 2.9% in assay [7]. Also, the residual activity in assay [8] was 57%; in assay [9] it was 55%; in assay [10], 43%; in assay [11] it was 92%; in assay [12], 95%; in assay [13], 100%. Further, the residual activity was 88% in assay [14], 81% in assay [15] and 82% in assay [16]. For the same molecule, in [6], the inhibition is 2.66%.
For `CC1=C(C#N)C(c2ccc3c(c2)c(NC(=O)c2ccccc2C)nn3C)C(C#N)=C(C)N1` [BAY-974], the residual activity is 81% in assay [1]; 97% in assay [2]; 100% in assay [3]; 87% in assay [4]; 96% in [5]; 100% in [7]. For the same molecule, the residual activity was 89% in [8]; 100% in assay [9]; 88% in assay [10]; 74% in assay [11]; 100% in [12]; 100% in assay [13]. In addition, the residual activity in [14] was 80%; in [15], 90%; in [16], 94%. Further, in assay [6], the inhibition is 11.4%.
